Patent US8076486B2, “Heteroaryl-substituted arylaminopyridine derivatives as MEK inhibitors” (Merck Serono S.A., priority 2006, dated 2011)

Assays:
human MEK1 = human MEK1 (Homo sapiens, UniProt Q02750, S218E/S222E); experiment: MEK-1 Enzyme Assay (LANCE-HTRF); assay type: biochemical; details: MEK-1 EE, ERK-2K52A substrate, 9 uM ATP, 1.5 hrs
Description: Assay 1: MEK-1 Enzyme Assay (LANCE-HTRF)
Inhibition of human MEK1 kinase activity was monitored with a homogenous, fluorescence-based assay. The assay uses time resolved fluorescence resonance energy transfer to probe for phosphorylation of ERK1 by MEK1. The detailed procedure is described in the following:
Constititutively active MEK-1 EE (150 ng/well) and ERK-2K52A (110 ng/well) were incubated in black, 384 well Optiplates (Perkin Elmer) for 1.5 hrs at room temperature, in the presence of increasing concentrations of inhibitors. The total reaction volume was 50 ul. The inhibitors were serial diluted in kinase buffer (9 uM ATP, 50 mM Tris-Hcl pH 8.0, 10 mM MgCl2, 1 mM DTT and 100 uM Na3VO4), to a final concentration of 1% DMSO. At the end of the incubation, the enzyme reaction was quenched by adding 50 ul of assay buffer containing 50 mM Tris-Hcl, 50 mM EDTA, 0.1% BSA and a mixture of 1.25 ug/mL europium labeled anti-phosphotyrosine mAb (Perkin Elmer) and 5 ug/mL of allophycocyanin labeled anti-GST antibody (CIS-US). Plates were agitated on a plate shaker for 30 minutes and the phosphorylation of the ERK-2K52A substrate was measured by homogeneous time resolved fluorescence (HTRF) at 340 nm excitation and […] emission filters on the VICTOR V fluorescence plate reader. Phosphorylation is expressed as a ratio of 665 nM signal×10,000/615 nM signal. To assess the inhibitory potential of the compounds, IC50-values were determined.

Murine colon C26 cells = experiment: Tumor Cell Proliferation Assay (ATP Lite), C26; assay type: cell-based; details: Mus musculus, 96 h, 4 days, ATPlite
Description: (§1) Assay 2: Tumor Cell Proliferation Assays (ATP Lite)
(§2) Murine colon C26 (1500 cells/well), human melanoma A375 (2000 cells/well), or human pancreatic MiaPaCa-2 cells (2000 cells/well) were plated in white, 96 well plates (Corning) in growth media (DMEM with 10% fetal bovine serum, 2 mM glutamine for C26 and MiaPaCa-2, and RPMI with 10% fetal bovine serum, 2 mM glutamine for A375) and cultured overnight at 37° C. in a humidified, 5% CO2 incubator. Inhibitors were serially diluted in 100% DMSO and subsequently added to the cells, in growth media, to reach a final concentration of 0.25% DMSO. The cells were incubated for 4 days in the presence of the test compounds and the proliferation was quantitated using the ATPlite cell proliferation kit (Packard).

[1] = system: human melanoma A375 cells; experiment: Tumor Cell Proliferation Assay (ATP Lite), A375; assay type: cell-based; details: A-375, 96 h, 4 days, ATPlite
Description: as §1, §2

[2] = system: human pancreatic MiaPaCa-2 cells; experiment: Tumor Cell Proliferation Assay (ATP Lite), MiaPaCa-2; assay type: cell-based; details: MIA PaCa-2, 96 h, 4 days, ATPlite, read-out: MiaPaCa2 cell proliferation IC50
Description: as §1, §2

Sequence of human MEK1 (Q02750 whole entry S218E/S222E): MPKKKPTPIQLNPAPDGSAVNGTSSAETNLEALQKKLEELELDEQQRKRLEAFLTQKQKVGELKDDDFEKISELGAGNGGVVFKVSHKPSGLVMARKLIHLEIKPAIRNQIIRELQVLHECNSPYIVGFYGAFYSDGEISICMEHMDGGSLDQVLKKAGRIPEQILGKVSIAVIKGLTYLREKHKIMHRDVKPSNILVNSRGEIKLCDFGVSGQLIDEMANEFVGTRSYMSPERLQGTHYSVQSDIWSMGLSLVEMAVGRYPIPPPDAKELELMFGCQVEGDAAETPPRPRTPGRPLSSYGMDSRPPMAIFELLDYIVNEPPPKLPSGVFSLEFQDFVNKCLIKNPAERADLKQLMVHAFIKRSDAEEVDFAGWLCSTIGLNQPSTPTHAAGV

Row | SMILES | IC50 (human MEK1) [nM] | IC50 (Murine colon C26 cells) [nM] | IC50 [1] [nM] | IC50 [2] [nM]
1 | Nc1nnc(-c2ccncc2Nc2ccc(I)cc2F)[nH]1 [Example 41, [4-(5-Amino-4H-[1,2,4]triazol-3-yl)-pyridin-3-yl]-(2-fluoro-4-iodo-phenyl)-amine] | ≤ 3000 | ≤ 3000 | ≤ 3000 | ≤ 3000
2 | CN(C)c1nnc(-c2ccncc2Nc2ccc(I)cc2F)o1 [Example 42, [4-(5-Dimethylamino-[1,3,4]oxadiazol-2-yl)-pyridin-3-yl]-(2-fluoro-4-iodo-phenyl)-amine] | ≤ 3000 | ≤ 3000 | ≤ 3000 | ≤ 3000
3 | COC(=O)CNc1nnc(-c2ccncc2Nc2ccc(I)cc2F)o1 [Example 43, {5-[3-(2-Fluoro-4-iodo-phenylamino)-pyridin-4-yl]-[1,3,4]oxadiazol-2-ylamino}-acetic acid methyl ester] | ≤ 3000 | ≤ 3000 | ≤ 3000 | 3000 to 25000
4 | OCCNc1nnc(-c2ccncc2Nc2ccc(I)cc2F)o1 [Example 44, 2-{5-[3-(2-Fluoro-4-iodo-phenylamino)-pyridin-4-yl]-[1,3,4]oxadiazol-2-ylamino}-ethanol] | ≤ 3000 | ≤ 3000 | ≤ 3000 | ≤ 3000
5 | O=C(O)CNc1nnc(-c2ccncc2Nc2ccc(I)cc2F)o1 [Example 45, {5-[3-(2-Fluoro-4-iodo-phenylamino)-pyridin-4-yl]-[1,3,4]oxadiazol-2-ylamino}-acetic acid] | ≤ 3000 | 3000 to 25000 | ≤ 3000 | 3000 to 25000
6 | NC(=O)CNc1nnc(-c2ccncc2Nc2ccc(I)cc2F)o1 [Example 46, 2-{5-[3-(2-Fluoro-4-iodo-phenylamino)-pyridin-4-yl]-[1,3,4]oxadiazol-2-ylamino}-acetamide] | ≤ 3000 | ≤ 3000 | ≤ 3000 | ≤ 3000
7 | CN(C)C(=O)CNc1nnc(-c2ccncc2Nc2ccc(I)cc2F)o1 [Example 47, 2-{5-[3-(2-Fluoro-4-iodo-phenylamino)-pyridin-4-yl]-[1,3,4]oxadiazol-2-ylamino}-N,N-dimethyl-acetamide] | ≤ 3000 | ≤ 3000 | ≤ 3000 | ≤ 3000
8 | Nc1nnc(-c2c(F)cncc2Nc2ccc(I)cc2F)o1 [Example 48, [4-(5-Amino-[1,3,4]oxadiazol-2-yl)-5-fluoro-pyridin-3-yl]-(2-fluoro-4-iodo-phenyl)-amine] | ≤ 3000 | ≤ 3000 | ≤ 3000 | ≤ 3000
9 | Fc1cc(I)ccc1Nc1cnccc1-c1nnc(NCC2CCCO2)o1 (centres unmarked) [Example 49, (2-Fluoro-4-iodo-phenyl)-(4-{5-[(tetrahydro-furan-2-ylmethyl)-amino]-[1,3,4]oxadiazol-2-yl}-pyridin-3-yl)-amine] | ≤ 3000 | ≤ 3000 | ≤ 3000 | ≤ 3000
10 | Fc1cc(I)ccc1Nc1cnccc1-c1nnc(NCC2CCCO2)s1 (centres unmarked) [Example 50, (2-Fluoro-4-iodo-phenyl)-(4-{5-[(tetrahydro-furan-2-ylmethyl)-amino]-[1,3,4]thiadiazol-2-yl}-pyridin-3-yl)-amine] | ≤ 3000 | ≤ 3000 | ≤ 3000 | ≤ 3000
11 | C[Si](C)(C)c1[nH]nnc1-c1ccncc1Nc1ccc(I)cc1F [Example 63, N-(2-fluoro-4-iodophenyl)-4-[5-(trimethylsilyl)-1H-1,2,3-triazol-4-yl]pyridin-3-amine] | ≤ 3000 | ≤ 3000 | ≤ 3000 | ≤ 3000

Second part, the compound after the results:

Row | IC50 (human MEK1) [nM] | IC50 (Murine colon C26 cells) [nM] | IC50 [1] [nM] | IC50 [2] [nM] | SMILES
12 | ≤ 3000 | ≤ 3000 | ≤ 3000 | ≤ 3000 | CCOC(=O)C(C)Nc1nnc(-c2ccncc2Nc2ccc(I)cc2F)o1 (centres unmarked) [Example 52, 2-{5-[3-(2-Fluoro-4-iodo-phenylamino)-pyridin-4-yl]-[1,3,4]oxadiazol-2-ylamino}-propionic acid ethyl ester]
13 | ≤ 3000 | ≤ 3000 | ≤ 3000 | 3000 to 25000 | CC(Nc1nnc(-c2ccncc2Nc2ccc(I)cc2F)o1)C(=O)O (centres unmarked) [Example 53, 2-{5-[3-(2-Fluoro-4-iodo-phenylamino)-pyridin-4-yl]-[1,3,4]oxadiazol-2-ylamino}-propionic acid]
14 | ≤ 3000 | ≤ 3000 | ≤ 3000 | ≤ 3000 | Nc1nnc(-c2ccncc2Nc2ccc(I)cc2F)s1 [Example 54, [4-(5-Amino-[1,3,4]thiadiazol-2-yl)-pyridin-3-yl]-(2-fluoro-4-iodo-phenyl)-amine]
15 | ≤ 3000 | ≤ 3000 | ≤ 3000 | ≤ 3000 | Cn1c(-c2ccncc2Nc2ccc(I)cc2F)n[nH]c1=O [Example 55, 5-[3-(2-Fluoro-4-iodo-phenylamino)-pyridin-4-yl]-4-methyl-2,4-dihydro-[1,2,4]triazol-3-one]
16 | ≤ 3000 | > 25000 | 3000 to 25000 | 3000 to 25000 | Fc1cc(I)ccc1Nc1cnccc1-c1ncon1 [Example 56, (2-Fluoro-4-iodo-phenyl)-(4-[1,2,4]oxadiazol-3-yl-pyridin-3-yl)-amine]
17 | ≤ 3000 | ≤ 3000 | ≤ 3000 | ≤ 3000 | Nc1nnc(-c2c(Nc3ccc(I)cc3F)cncc2-c2ccccc2Cl)o1 [Example 57, [4-(5-Amino-[1,3,4]oxadiazol-2-yl)-5-(2-chloro-phenyl)-pyridin-3-yl]-(2-fluoro-4-iodo-phenyl)-amine]
18 | ≤ 3000 | ≤ 3000 | ≤ 3000 | ≤ 3000 | Nc1nnc(-c2c(Nc3ccc(I)cc3F)cncc2-c2ccccc2F)o1 [Example 58, [4-(5-Amino-[1,3,4]oxadiazol-2-yl)-5-(2-fluoro-phenyl)-pyridin-3-yl]-(2-fluoro-4-iodo-phenyl)-amine]
19 | ≤ 3000 | ≤ 3000 | ≤ 3000 | ≤ 3000 | Fc1cc(I)ccc1Nc1cncc(-c2ccccc2F)c1-c1c[nH]nn1 [Example 60, (2-Fluoro-4-iodo-phenyl)-[5-(2-fluoro-phenyl)-4-(1H-[1,2,3]triazol-4-yl)-pyridin-3-yl]-amine]
20 | ≤ 3000 | 3000 to 25000 | ≤ 3000 | ≤ 3000 | Fc1cc(I)ccc1Nc1cnccc1-c1ccn[nH]1 [Example 61, (2-Fluoro-4-iodo-phenyl)-[4-(2H-pyrazol-3-yl)-pyridin-3-yl]-amine]
21 | ≤ 3000 | > 25000 | > 25000 | > 25000 | Fc1cc(I)ccc1Nc1cnccc1-c1nnn[nH]1 [Example 62, N-(2-fluoro-4-iodophenyl)-4-(1H-tetrazol-5-yl)pyridin-3-amine]
22 | ≤ 3000 | ≤ 3000 | ≤ 3000 | ≤ 3000 | Fc1cc(I)ccc1Nc1cnccc1-c1c[nH]nn1 [Example 64, N-(2-fluoro-4-iodophenyl)-4-(1H-1,2,3-triazol-4-yl)pyridin-3-amine]
23 | ≤ 3000 | ≤ 3000 | ≤ 3000 | ≤ 3000 | Fc1cc(I)ccc1Nc1cnccc1-c1cn[nH]c1 [Example 65, (2-Fluoro-4-iodo-phenyl)-[4-(1H-pyrazol-4-yl)-pyridin-3-yl]-amine]
